Consider 13 molecules from patent US10806785B2, “Immunomodulator compounds and methods of use” (Incyte Corporation, priority 2016, dated 2020).

Usually IC50 stands for the midpoint of a concentration-inhibition curve.

SMILES strings stand for the structures.

Sequence of PD-1/PD-L1 (Q9NZQ7 19-238): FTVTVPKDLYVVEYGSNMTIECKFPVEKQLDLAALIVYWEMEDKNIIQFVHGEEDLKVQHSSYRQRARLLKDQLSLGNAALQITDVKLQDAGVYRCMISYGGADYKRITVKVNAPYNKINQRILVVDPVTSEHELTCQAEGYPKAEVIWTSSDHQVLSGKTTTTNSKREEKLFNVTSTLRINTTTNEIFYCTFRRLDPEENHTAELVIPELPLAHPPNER

For this assay, the target named is PD-1/PD-L1 (Homo sapiens (Human), UniProt Q9NZQ7). As to the kind of experiment: PD-1/PD-L1 binding assay (HTRF). The procedure:
The assays were conducted in a standard black 384-well polystyrene plate with a final volume of 20 μL. Inhibitors were first serially diluted in DMSO and then added to the plate wells before the addition of other reaction components. The final concentration of DMSO in the assay was 1%. The assays were carried out at 25° C. in the PBS buffer (pH 7.4) with 0.05% Tween-20 and 0.1% BSA. Recombinant human PD-L1 protein (19-238) with a His-tag at the C-terminus was purchased from AcroBiosystems (PD1-H5229). Recombinant human PD-1 protein (25-167) with Fc tag at the C-terminus was also purchased from AcroBiosystems (PD1-H5257). PD-L1 and PD-1 proteins were diluted in the assay buffer and 10 μL was added to the plate well. Plates were centrifuged and proteins were preincubated with inhibitors for 40 minutes. The incubation was followed by the addition of 10 μL of HTRF detection buffer supplemented with Europium cryptate-labeled anti-human IgG (PerkinElmer-AD0212) specific for Fc and anti-His antibody conjugated to SureLight®-Allophycocyanin (APC, PerkinElmer-AD0059H). After centrifugation, the plate was incubated at 25° C. for 60 min. before reading on a PHERAstar FS plate reader (665 nm/620 nm ratio). Final concentrations in the assay were […], 10 nM PD-L1, 1 nM europium anti-human IgG and 20 nM anti-His-Allophycocyanin. IC50 determination was performed by fitting the curve of percent control activity versus the log of the inhibitor concentration using the GraphPad Prism 5.0 software.
In general terms: TR-FRET usually uses a lanthanide donor and a delayed reading to cut background.
As for `Cc1c(-c2nc3c(o2)CN(C(=O)CN(C)C)C3)cccc1-c1cccc(NC(=O)c2nc3c(n2C)CCN(C2CCC(C)(C(=O)O)CC2)C3)c1Cl` (stereo not shown) [Compound 168, 4-(2-((2-chloro-3′-(5-(dimethylglycyl)-5,6-dihydro-4H-pyrrolo[3,4-d]oxazol-2-yl)-2′-methyl-[1,1′-biphenyl]-3-yl)carbamoyl)-1-methyl-1,4,6,7-tetrahydro-5H-imidazo[4,5-c]pyridin-5-yl)-1-methylcyclohexane-1-carboxylic acid], the IC50 was at most 10 nM.

`CCN(C)CC(=O)N1Cc2nc(-c3cccc(-c4cccc(NC(=O)c5nc6c(n5C)CCN(CCC5CCC(C(=O)O)CC5)C6)c4Cl)c3Cl)oc2C1` (stereo not shown) [Compound 169, 4-(2-(2-((2,2′-dichloro-3′-(5-(N-ethyl-N-methylglycyl)-5,6-dihydro-4H-pyrrolo[3,4-d]oxazol-2-yl)-[1,1′-biphenyl]-3-yl)carbamoyl)-1-methyl-1,4,6,7-tetrahydro-5H-imidazo[4,5-c]pyridin-5-yl)ethyl)cyclohexane-1-carboxylic acid] showed an IC50 of at most 10 nM.

For `Cn1c(C(=O)Nc2cccc(-c3cccc(-c4nc5c(o4)CN(C(=O)CN4CC(O)C4)C5)c3Cl)c2Cl)nc2c1CCN(CCC1CCC(C(=O)O)CC1)C2` (stereo not shown) [Compound 170, 4-(2-(2-(2,2′-dichloro-3′-(5-(2-(3-hydroxyazetidin-1-yl)acetyl)-5,6-dihydro-4H-pyrrolo[3,4-d]oxazol-2-yl)biphenyl-3-ylcarbamoyl)-1-methyl-6,7-dihydro-1H-imidazo[4,5-c]pyridin-5(4H)-yl)ethyl)cyclohexane-1-carboxylic acid], the IC50 is at most 10 nM.

As for `Cn1c(C(=O)Nc2cccc(-c3cccc(-c4nc5c(o4)CN(C(=O)CN4CC[C@@H](O)C4)C5)c3Cl)c2Cl)nc2c1CCN(CCC1CCC(C(=O)O)CC1)C2` (stereo partly drawn) [Compound 171, (R)-4-(2-(2-(2,2′-dichloro-3′-(5-(2-(3-hydroxypyrrolidin-1-yl)acetyl)-5,6-dihydro-4H-pyrrolo[3,4-d]oxazol-2-yl)biphenyl-3-ylcarbamoyl)-1-methyl-6,7-dihydro-1H-imidazo[4,5-c]pyridin-5(4H)-yl)ethyl)cyclohexane-1-carboxylic acid], the IC50 was at most 10 nM. Molecule `CCN(C)CC(=O)N1Cc2nc(-c3cccc(-c4cccc(NC(=O)c5nc6c(n5C)CCN(C[C@H]5CC[C@H](C(=O)O)CC5)C6)c4Cl)c3Cl)oc2C1` [Compound 172, trans-4-((2-((2,2′-dichloro-3′-(5-(N-ethyl-N-methylglycyl)-5,6-dihydro-4H-pyrrolo[3,4-d]oxazol-2-yl)-[1,1′-biphenyl]-3-yl)carbamoyl)-1-methyl-1,4,6,7-tetrahydro-5H-imidazo[4,5-c]pyridin-5-yl)methyl)cyclohexane-1-carboxylic acid] showed an IC50 of at most 10 nM. The same measure for `CCN(C)CC(=O)N1Cc2nc(-c3cccc(-c4cccc(NC(=O)c5nc6c(n5C)CCN(C5CCC(C)(C(=O)O)CC5)C6)c4C)c3C)oc2C1` (stereo not shown) [Compound 173, 4-(2-((3′-(5-(N-ethyl-N-methylglycyl)-5,6-dihydro-4H-pyrrolo[3,4-d]oxazol-2-yl)-2,2′-dimethyl-[1,1′-biphenyl]-3-yl)carbamoyl)-1-methyl-1,4,6,7-tetrahydro-5H-imidazo[4,5-c]pyridin-5-yl)-1-methylcyclohexane-1-carboxylic acid]: at most 10 nM; for `CCN(C)CCC(=O)N1Cc2nc(-c3cccc(-c4cccc(NC(=O)c5nc6c(n5C)CCN(C5CCC(C)(C(=O)O)CC5)C6)c4Cl)c3Cl)oc2C1` (stereo not shown) [Compound 174, 4-(2-((2,2′-dichloro-3′-(5-(3-(ethyl(methyl)amino)propanoyl)-5,6-dihydro-4H-pyrrolo[3,4-d]oxazol-2-yl)-[1,1′-biphenyl]-3-yl)carbamoyl)-1-methyl-1,4,6,7-tetrahydro-5H-imidazo[4,5-c]pyridin-5-yl)-1-methylcyclohexane-1-carboxylic acid]: at most 10 nM.

Turning to `CCN1CCc2c(nc(C(=O)Nc3cccc(-c4cccc(NC(=O)c5nc6c(n5C)CCN(CC57CCC(C(=O)O)(CC5)C7)C6)c4Cl)c3Cl)n2C)C1` [Compound 176, 4-((2-(2,2′-dichloro-3′-(5-ethyl-1-methyl-4,5,6,7-tetrahydro-1H-imidazo[4,5-c]pyridine-2-carboxamido)biphenyl-3-ylcarbamoyl)-1-methyl-6,7-dihydro-1H-imidazo[4,5-c]pyridin-5(4H)-yl)methyl)bicyclo[2.2.1]heptane-1-carboxylic acid], the IC50 is at most 10 nM. The same measure for `CC(C)N1CCc2c(nc(C(=O)Nc3cccc(-c4cccc(NC(=O)c5nc6c(n5C)CCN(CC57CCC(C(=O)O)(CC5)C7)C6)c4Cl)c3Cl)n2C)C1` [Compound 177, 4-((2-(2,2′-dichloro-3′-(5-isopropyl-1-methyl-4,5,6,7-tetrahydro-1H-imidazo[4,5-c]pyridine-2-carboxamido)biphenyl-3-ylcarbamoyl)-1-methyl-6,7-dihydro-1H-imidazo[4,5-c]pyridin-5(4H)-yl)methyl)bicyclo[2.2.1]heptane-1-carboxylic acid]: at most 10 nM; for `Cn1c(C(=O)Nc2cccc(-c3cccc(NC(=O)c4nc5c(n4C)CCN(C4CCC4)C5)c3Cl)c2Cl)nc2c1CCN(CC13CCC(C(=O)O)(CC1)C3)C2` [Compound 178, 4-((2-(2,2′-dichloro-3′-(5-cyclobutyl-1-methyl-4,5,6,7-tetrahydro-1H-imidazo[4,5-c]pyridine-2-carboxamido)biphenyl-3-ylcarbamoyl)-1-methyl-6,7-dihydro-1H-imidazo[4,5-c]pyridin-5(4H)-yl)methyl)bicyclo[2.2.1]heptane-1-carboxylic acid]: at most 10 nM. The same measure for `Cn1c(C(=O)Nc2cccc(-c3cccc(NC(=O)c4nc5c(n4C)CCN(C4CCOCC4)C5)c3Cl)c2Cl)nc2c1CCN(CC13CCC(C(=O)O)(CC1)C3)C2` [Compound 179, 4-((2-(2,2′-dichloro-3′-(1-methyl-5-(tetrahydro-2H-pyran-4-yl)-4,5,6,7-tetrahydro-1H-imidazo[4,5-c]pyridine-2-carboxamido)biphenyl-3-ylcarbamoyl)-1-methyl-6,7-dihydro-1H-imidazo[4,5-c]pyridin-5(4H)-yl)methyl)bicyclo[2.2.1]heptane-1-carboxylic acid]: 10 to 100 nM; for `Cn1c(C(=O)Nc2cccc(-c3cccc(NC(=O)c4nc5c(n4C)CCN(CC46CCC(C(=O)O)(CC4)C6)C5)c3Cl)c2Cl)nc2c1CCN(CCO)C2` [Compound 180, 4-((2-(2,2′-dichloro-3′-(5-(2-hydroxyethyl)-1-methyl-4,5,6,7-tetrahydro-1H-imidazo[4,5-c]pyridine-2-carboxamido)biphenyl-3-ylcarbamoyl)-1-methyl-6,7-dihydro-1H-imidazo[4,5-c]pyridin-5(4H)-yl)methyl)bicyclo[2.2.1]heptane-1-carboxylic acid]: at most 10 nM. The same measure for `C[C@H](O)CN1CCc2c(nc(C(=O)Nc3cccc(-c4cccc(NC(=O)c5nc6c(n5C)CCN(C)C6)c4Cl)c3Cl)n2C)C1` [Example 27, (S)—N-(2,2′-dichloro-3′-(1,5-dimethyl-4,5,6,7-tetrahydro-1H-imidazo[4,5-c]pyridine-2-carboxamido)biphenyl-3-yl)-5-(2-hydroxypropyl)-1-methyl-4,5,6,7-tetrahydro-1H-imidazo[4,5-c]pyridine-2-carboxamide]: at most 10 nM.
